Results from article PMC11721736, “Synthesis of Novel Benzothiazole–Profen Hybrid Amides as Potential NSAID Candidates” (Molecules, 2024).
Several values for one entry are separate records, joined by “and”; a condition that tells them apart may be missing. Identical values can stand only once.

Assays:
[1] = Hydroxyl radical scavenging activity (HRSA); details: 1 h at 37 °C, absorbance at 510 nm
Procedure: Hydroxyl radical scavenging activities of different fractions of 2-ABT-profenes were determined according to the method described by Guo [47]. The scavenging of hydroxyl radicals was performed as follows: 0.3 mL sodium salicylate (20 mM), 1 mL FeSO4 (1.5 mM), 1 mL sample/standard of different concentrations (20–1000 µg/mL), and 0.7 mL H2O2 (6 mM) were mixed immediately. Then, the reaction tubes were put in a 37 °C water bath for 1 h, and the absorbance of the mixture was recorded at 510 nm against a blank. We used standards with proven high antioxidant activity such as ascorbic acid and quercetin. The hydroxyl radical scavenging ability was calculated as follows:(2) I,%(HRSA)=Ablank−Asample/Ablank×100 where Ablank is the absorbance without samples and Asample is the absorbance in the presence of the samples.

[2] = Hydrogen peroxide scavenging activity (HPSA); details: 10 min at 37 °C, absorbance at 230 nm
Procedure: The Manolov et al. approach was used to evaluate the capacity to scavenge hydrogen peroxide. A 43 mM solution of H2O2 was prepared in a potassium phosphate buffer solution (0.2 M, pH 7.4). The analysis of the samples was carried out as follows: in test tubes, 0.6 mL H2O2 (43 mM), 1 mL sample/standard of different concentrations (20–1000 µg/mL), and 2.4 mL potassium phosphate buffer solution were mixed. The mixture was stirred and incubated in the dark for 10 min at 37 °C. Absorbance was measured at 230 nm with a spectrophotometer (Camspec M508, Leeds, UK) against a blank solution containing phosphate buffer and H2O2 without the sample. Ascorbic acid and quercetin were used as standards. The percentage HPSA of the samples was evaluated by comparing them to a blank sample and was calculated using the following formula:(1) I,%(HPSA)=Ablank−(ATS−ACS)/Ablank×100 where Ablank is the absorbance of the blank sample, ACS is the absorbance of the control sample, and ATS is the absorbance of the test sample.

[3] = target: T1, human albumin (Homo sapiens, UniProt P02768); test: Inhibition of albumin denaturation (IAD), in vitro anti-inflammatory activity; format: biochemical; details: human albumin 1%, heated at 70 °C for 15 min, turbidity at 660 nm; read-out: IAD IC50 ± SD (converted)
T1 construct: purchased BB-NCIPD Ltd., Sofia, Bulgaria Human albumin 20%—BB, 200 g/L
Procedure: In vitro analysis of anti-inflammatory activity was assessed as the inhibition of albumin denaturation (IAD). The analysis was performed according to Manolov’s method, with minor modifications. The experiment was performed with human albumin. The solution of albumin (1%) was prepared in distilled water (pH 7.4). Test samples/standards were first dissolved in 1.2 mL of DMSO and then supplemented with 1% Tween 80 in PBS so that the final concentration of the stock solution was 1000 μg/mL. Then, a series of working solutions with different concentrations (20–500 μg/mL) in 1% Tween 80/PBS were prepared. The reaction mixture contained a 2 mL test sample/standard of different concentrations and 1 mL albumin (1%). The mixture was incubated at 37 °C for 15 min and then heated at 70 °C for 15 min in a water bath. After cooling, the turbidity was measured at 660 nm with a spectrophotometer (Camspec M508, Leeds, UK). Ibuprofen was used as a standard. The experiment was performed three times. The percentage inhibition of albumin denaturation (IAD) was calculated against the control. The control sample consisted of the same concentration of albumin dissolved in distilled water. (3) %IAD=Ablank−Asample/Ablank×100

[4] = Lipophilicity as RM values by reversed-phase thin-layer chromatography; format: physicochemical; details: reversed-phase TLC, dimensionless
Source text: Lipophilicity can be evaluated through calculations or experimental methods. In our study, we measured the lipophilicity of the synthesized 2-ABT derivatives using a practical method: reversed-phase thin-layer chromatography, as described by Hadjipavlou-Litina. The lipophilicity increased in the following order based on the experimentally obtained RM values: 3a (1.629) < […] < 3e (1.736) < 3b (1.941) < 3c (2.02). Compound 3c is the most lipophilic experimentally, followed by 3b, while 3a is the least lipophilic.
The determination of lipophilicity of 2-ABT derivatives was estimated according to the method reported by Pontiki and Hadjipavlou-Litina.

T1 sequence (P02768 25-609): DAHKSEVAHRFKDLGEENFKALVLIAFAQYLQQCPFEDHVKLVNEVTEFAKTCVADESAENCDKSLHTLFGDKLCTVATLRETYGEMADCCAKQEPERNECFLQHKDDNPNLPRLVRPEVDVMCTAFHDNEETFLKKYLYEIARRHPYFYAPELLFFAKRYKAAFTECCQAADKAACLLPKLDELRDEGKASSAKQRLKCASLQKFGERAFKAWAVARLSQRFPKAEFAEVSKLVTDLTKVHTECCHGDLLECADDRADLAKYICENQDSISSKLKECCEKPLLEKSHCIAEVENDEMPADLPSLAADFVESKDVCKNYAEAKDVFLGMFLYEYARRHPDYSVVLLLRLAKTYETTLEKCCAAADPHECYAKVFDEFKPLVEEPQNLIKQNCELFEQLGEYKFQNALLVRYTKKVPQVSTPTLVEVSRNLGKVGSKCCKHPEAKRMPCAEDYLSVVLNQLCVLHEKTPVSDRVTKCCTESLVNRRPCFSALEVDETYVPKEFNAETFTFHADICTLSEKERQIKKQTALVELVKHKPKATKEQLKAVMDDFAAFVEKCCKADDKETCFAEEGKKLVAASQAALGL

O=C1O[C@H]([C@@H](O)CO)C(O)=C1O [AA, ascorbic acid, reference compound]
HRSA IC50 ± SD [1]: 129.84 ± 4.52 µg/mL | HPSA IC50 ± SD [2]: 24.84 ± 0.35 µg/mL

CC(C)Cc1ccc(C(C)C(=O)Nc2nc3ccccc3s2)cc1 (stereo not shown) [Compound 3a, N-(benzo[d]thiazol-2-yl)-2-(4-isobutylphenyl)propanamide]
IC50 [3]: 473 µM | HRSA IC50 ± SD [1]: 375.06 ± 14.62 µg/mL | HPSA IC50 ± SD [2]: 65.51 ± 0.30 µg/mL | RM ± SD [4]: 1.629 ± 0.009 and 1.629

CC(C(=O)Nc1nc2ccccc2s1)c1cccc(C(=O)c2ccccc2)c1 (stereo not shown) [Compound 3b, N-(benzo[d]thiazol-2-yl)-2-(3-benzoylphenyl)propanamide]
IC50 [3]: 141 µM | HRSA IC50 ± SD [1]: 285.13 ± 27.44 µg/mL | HPSA IC50 ± SD [2]: 60.24 µg/mL | RM ± SD [4]: 1.941 ± 0.010 and 1.941

COc1ccc2cc(C(C)C(=O)Nc3nc4ccccc4s3)ccc2c1 (stereo not shown) [Compound 3c, N-(benzo[d]thiazol-2-yl)-2-(6-methoxynaphthalen-2-yl)propanamide]
IC50 [3]: 178 µM | HRSA IC50 ± SD [1]: 317.91 ± 11.61 µg/mL | HPSA IC50 ± SD [2]: 67.71 µg/mL | RM ± SD [4]: 2.020 ± 0.046 and 2.02

CC(C(=O)Nc1nc2ccccc2s1)c1ccc2c(c1)[nH]c1ccc(Cl)cc12 (stereo not shown) [Compound 3d, N-(benzo[d]thiazol-2-yl)-2-(6-chloro-9H-carbazol-2-yl)propanamide]
IC50 [3]: 160 µM | HRSA IC50 ± SD [1]: 551.44 ± 28.48 µg/mL | HPSA IC50 ± SD [2]: 67.22 ± 0.45 µg/mL | RM ± SD [4]: 1.755 ± 0.014 and 1.755

CC(C(=O)Nc1nc2ccccc2s1)c1ccc(-c2ccccc2)c(F)c1 (stereo not shown) [Compound 3e, N-(benzo[d]thiazol-2-yl)-2-(2-fluoro-[1,1′-biphenyl]-4-yl)propanamide]
IC50 [3]: 157 µM | HRSA IC50 ± SD [1]: 429.59 ± 21.49 µg/mL | HPSA IC50 ± SD [2]: 63.05 ± 0.28 µg/mL | RM ± SD [4]: 1.736 ± 0.015 and 1.736

CC(C)Cc1ccc(C(C)C(=O)O)cc1 (stereo not shown) [Ibu, ibuprofen, reference compound]
RM ± SD [4]: 1.110 ± 0.010

O=c1c(O)c(-c2ccc(O)c(O)c2)oc2cc(O)cc(O)c12 [Qrc, quercetin, reference compound]
HRSA IC50 ± SD [1]: 149.18 ± 9.27 µg/mL | HPSA IC50 ± SD [2]: 69.25 ± 1.82 µg/mL
